Laboratory results: paper PMC11204507, “Mechanistic Insights into the Neurotoxicity of 2,5-Dimethoxyphenethylamines (2C) and Corresponding N-(2-methoxybenzyl)phenethylamine (NBOMe) Drugs” (Journal of Xenobiotics, 2024)
Read-outs that look alike come from different tables or passages of the source.

Key:
[1] = system: differentiated SH-SY5Y cells; assay: Intracellular calcium levels, Fluo-4 AM probe; format: cell-based, human; settings: positive control, 25 mM
Procedure: Calcium is a vital second messenger for almost every cellular process, including cellular signaling, muscle function, neurotransmitter release, membrane function, and apoptosis. Therefore, its levels inside cells are strictly controlled to maintain cellular homeostasis. The intracellular calcium levels were measured using the cell-permeable Fluo-4 AM probe. Inside the cells, Fluo-4 AM is cleaved to its active and fluorescent form—Fluo-4—which has a high affinity for calcium ions (Ca^2⁺). Thus, its fluorescence emission is directly proportional to the concentration of calcium ions in the intracellular environment.
Therefore, the SH-SY5Y cells were seeded onto 96-well plates (25,000 cells/cm^2) following the previously described seeding and differentiation protocol. […] The average value for negative control (EGTA-treated cells) was subtracted from every other condition and then the minimum average value was subtracted from the maximum average value for every other condition. The results are presented as a percentage relative to the control cells (0 µM). A minimum of 5 independent experiments were conducted in triplicate.

[2] = system: dopaminergic CATH.a cells and 5-HT-containing B65 cells; set-up: method as in doi:10.1007/s11419-020-00527-w; settings: 24 h exposure; read-out: EC50, LDH assay; cited from earlier work
[3] = system: serotonergic B65 cells; set-up: method as in doi:10.1007/s11419-020-00527-w; settings: cited from earlier work
[4] = system: TK6 cells; set-up: method as in PMID 33348640; settings: 1 h, cited from earlier work
[5] = system: MAO-A and MAO-B; settings: rat model; cited from earlier work
[6] = system: differentiated SH-SY5Y cells; set-up: method as in PMID 37631071, PMID 25900438; settings: same in vitro model; cited from earlier work
[7] = system: differentiated SH-SY5Y cells; set-up: method as in PMID 37631071, PMID 25900438; settings: same in vitro model; cited from earlier work; remark: listed apart in the source
[8] = system: differentiated SH-SY5Y cells; settings: same experimental conditions; cited from earlier work
[9] = system: differentiated SH-SY5Y cells; assay: Intracellular ROS/RNS levels, DCFH-DA probe; format: cell-based, human; settings: positive control, 24 h
Procedure: Reactive species play important roles in cell signaling and immune response. However, when their levels are excessive, they can cause oxidative stress and damage the cells. The intracellular reactive oxygen species (ROS) and reactive nitrogen species (RNS) levels were measured using the cell-permeable DCFH-DA probe. Inside the cells, DCFH-DA is cleaved by cellular esterases originating DCFH, which is oxidized by ROS/RNS, resulting in the fluorescent 2′,7′-dichlorofluorescein (DCF).
Therefore, the SH-SY5Y cells were seeded onto 96-well plates (25,000 cells/cm^2) following the previously described seeding and differentiation protocol. […] Tert-butyl hyoperoxide (t-BHP, 100 µM, 24 h) was used as a positive control.
At the end of the incubation period, the DCF fluorescence was measured at an excitation wavelength of 485 nm and an emission wavelength of […] in a multi-well plate reader (PowerWaveX, BioTek Instruments, Winooski, VT, USA). The detection of ROS/RNS was assessed by the percent of probe oxidation relative to the control cells (0 µM), and a minimum of 4 independent experiments were conducted in triplicate.

[Ca+2].[Cl-].[Cl-] [CaCl2, reference compound]
Ca2+ intracellular levels, % of control cells [1]: 141.0%

CN[C@@H](C)Cc1ccccc1 [methamphetamine]
EC50 [2]: 1500 to 3000 µM

COc1cc(CCN)c(OC)cc1I [2C-I]
mitochondrial production of ROS [3]: increase in the mitochondrial production of ROS
increase in ROS levels ([4]; 35 µM): two-fold
deamination by MAO-A and MAO-B [5]: both isoenzymes can catalyze the deamination

COc1ccc(OC)c(CCN)c1 [2C-H]
increase in ROS levels ([4]; 35 µM): two-fold

COc1cc(CCNCc2ccccc2OC)c(OC)cc1Br [25B-NBOMe]
increase in ROS levels ([4]; 12.5 µM): two-fold
tGSH content [6]: significant decrease in the tGSH content
ROS production [7]: no ROS production

CNC(C)Cc1ccc2c(c1)OCO2 (centres unmarked) [MDMA, 3,4-methylenedioxymethamphetamine]
EC50 [2]: 1500 to 3000 µM

COc1cc(CCN)c(OC)cc1Br [2C-B]
increase in ROS levels ([4]; 12.5 µM): two-fold
tGSH content [6]: significant decrease in the tGSH content
ROS production [7]: no ROS production
drug-induced cytotoxicity upon MAO inhibition [8]: significant increase in the drug-induced cytotoxicity was observed upon MAO inhibition
deamination by MAO-A and MAO-B [5]: both isoenzymes can catalyze the deamination

CC(C)(C)OO [t-BHP, tert-butyl hydroperoxide]
activity at 100 µM ([9]; Homo sapiens, SH-SY5Y, control 100.0%): 188%
increase of ROS levels ([9]; 100 µM): approximately 90%
